Laboratory results published in patent US10226476B2, “Method of attenuating reactions to skin irritants” (Dana-Farber Cancer Institute, Inc., priority 2001, dated 2019).
“Also recorded” adds a separate entry of the source.

Tested on: oxazolone-induced contact hypersensitivity in mice
Assay: oxazolone-induced contact hypersensitivity (hapten-specific increase in ear thickness at 24 hours)
Type: in vivo, mouse
Settings: for effect on CSH/CHS response to oxazolone, systemic administration: systemic (i.p.) administration
Description: 8-12 week old female C57B1/6 mice were purchased from Taconic Farms. Inc. (Germantown, N.Y.). The CD1d-null allele (generated in a 129×C57B1/6 founder (25) (26) was backcrossed 7 generations into the C57B1/6 strain. (15) Homozygous CD1d deficient mice were obtained from littermate pairings and used to generate heterozygote CD1d deficient and wild type controls. Breeding pairs of mice deficient for CD1d on the BALB/c background were purchased from Jackson Labs (Bar Harbor, Me.). The C57B1/6 and BALB/c J 281 null mice were established by specific deletion of the J 281 gene segment (27) (28). All mouse experiments were approved and conducted under IACUC guidelines.
Mice at least seven weeks of age were sensitized epicutaneously on day 0 with 70 μl of 4% 4-ethoxymethylene-2-phenyl-2-oxazolin-5-one (oxazolone, Sigma, St. Louis, Mo.) in acetone/olive oil (4/1) and challenged five days later on the right ear with 20 μl of 0.5% oxazolone or carrier only on the left ear. The hapten-specific increase in ear thickness at 24 hours was determined with a micrometer.
Mice received a series of 5 intraperitoneal injections of either 2 μg of αManCer (2 μg i.p. diluted in a solution of phosphate buffered saline and 0.5% Tween-20 every other day, starting 3 days prior to skin sensitization and continuing through to re-challenge.
Significant differences between groups were evaluated with a Mann-Whitney test, or where appropriate, a two tailed Student's t test. Mean differences were considered significant when p<0.05.

| Molecule | inhibition of CSH by control substances (specificity) (specificity controls for DPPE-PEG, FIG. 2 and data not shown, result in words) | effect on CSH/CHS response to oxazolone, systemic administration (result in words) | inhibition of oxazolone-induced CSH in MHC-unrelated mouse strains (topical 100 mg/ml, SWR, C57B1/10, DBA, BALB/c mice, FIG. 5, result in words) | Half-maximal inhibition of CSH (topical concentration) (topical, applied with 4% oxazolone at sensitization, wild type C57B1/6 mice, FIG. 4A) | inhibition of contact hypersensitivity, inhibitor present at both phases (topical, during both priming and recall, FIG. 4B, result in words) | inhibition of contact hypersensitivity, inhibitor present in one phase only (topical, only during priming or only during recall, FIG. 4B, result in words) | inhibition of oxazolone-induced contact hypersensitivity, topical at sensitization (topical, with oxazolone on day 0 (100 mg/ml, or increasing doses 0-100 mg/ml), FIG. 3, 4A, result in words) |
| --- | --- | --- | --- | --- | --- | --- | --- |
| CCCCCCCCCCCCCCCC(=O)O [palmitic acid, reference compound] | neither palmitic acid, nor PEG alone were effective inhibitors of CSH |  |  |  |  |  |  |
| CCCCCCCCCCCCCCCCCCCCCCCCCC(=O)N[C@@H](COC1O[C@H](CO)[C@H](O)[C@H](O)[C@H]1O)[C@H](O)[C@H](O)CCCCCCCCCCCCCC (stereo partly drawn) [α-GalCer, (2S,3S,4R)-1-O-(-D-galactopyranosyl)-2-(N-hexacosanoylamino)-1,3,4-octadecanetriol, reference compound] |  | did not alter the CSH response |  |  |  |  |  |
| 1,2-Dipalmitoyl-sn-Glycero-3-Phosphoethanolamine-N-[Poly(ethylene glycol) 2000] [DPPE-PEG] |  | inhibited CHS as effectively as α-ManCer | effective inhibitor in all strains tested | 25 mg/mL | maximally inhibited | also inhibited, but to a lesser extent | inhibits oxazolone-induced contact hypersensitivity; also recorded: inhibit oxazolone-induced hypersensitivity in a dose-dependent manner |
